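The compound was tested at five concentrations on cells cultured in 96-well plates, with a 48-hour exposure period. The concentration for 50% growth inhibition is given as GI50. At the TGI there is no net growth.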
What was measured:
Test in all cases: DTP human tumour cell line panel, 48 h
786-0 renal = tested on: 786-0 renal
KM20L2 colon = tested on: KM20L2 colon
NCI-H23 lung = tested on: NCI-H23 lung
U251 CNS = tested on: U251 CNS
LOX IMVI melanoma = tested on: LOX IMVI melanoma
SF-268 CNS = tested on: SF-268 CNS
HT29 colon = tested on: HT29 colon
OVCAR-8 ovarian = tested on: OVCAR-8 ovarian
RXF 393 renal = tested on: RXF 393 renal
ACHN renal = tested on: ACHN renal

| SMILES | TGI (786-0 renal) [µM] | TGI (KM20L2 colon) [µM] | TGI (NCI-H23 lung) [µM] | TGI (U251 CNS) [µM] | TGI (LOX IMVI melanoma) [µM] | TGI (SF-268 CNS) [µM] | TGI (HT29 colon) [µM] | TGI (OVCAR-8 ovarian) [µM] | TGI (RXF 393 renal) [µM] | TGI (ACHN renal) [µM] | GI50 (ACHN renal) [µM] | GI50 (786-0 renal) [µM] | GI50 (KM20L2 colon) [µM] | GI50 (NCI-H23 lung) [µM] | GI50 (U251 CNS) [µM] | GI50 (LOX IMVI melanoma) [µM] | GI50 (SF-268 CNS) [µM] | GI50 (HT29 colon) [µM] | GI50 (OVCAR-8 ovarian) [µM] | GI50 (RXF 393 renal) [µM] |
| --- | --- | --- | --- | --- | --- | --- | --- | --- | --- | --- | --- | --- | --- | --- | --- | --- | --- | --- | --- | --- |
| Cc1nc(-c2cccnc2)sc1C(=O)/C=C/c1cccc([N+](=O)[O-])c1 | > 100 | > 100 | > 100 | > 100 | > 100 | > 100 | > 100 | > 100 | > 100 | – | – | – | – | – | – | – | – | – | – | – |
| CCOC(=O)C1(Cc2ccc3ccccc3c2)CCCCC(=O)N1 (stereo not given) | > 100 | > 100 | > 100 | > 100 | > 100 | > 100 | > 100 | > 100 | > 100 | > 100 | – | – | – | – | – | – | – | – | – | – |
| O=C1C2=C(CCC2)Nc2cccc3ncn1c23 | > 100 | > 100 | > 100 | > 100 | > 100 | > 100 | – | > 100 | > 100 | > 100 | – | – | – | – | – | – | – | – | – | – |
| N#Cc1c(-c2ccco2)cc(-c2ccccc2)[nH]c1=O | > 100 | > 100 | > 100 | > 100 | > 100 | > 100 | > 100 | > 100 | > 100 | > 100 | – | – | – | – | – | – | – | – | – | – |
| Cc1ccc(C)c(N2C(=O)C(=O)C(c3nc4ccccc4s3)C(=Nc3cccc4c(=O)[nH][nH]c(=O)c34)C2=O)c1 (stereo not given) | > 100 | > 100 | > 100 | > 100 | > 100 | > 100 | > 100 | > 100 | – | > 100 | – | – | – | – | – | – | – | – | – | – |
| Cc1ccccc1/C=C/C(=O)c1ccccc1 | 29.9 | 33.6 | 32.2 | 30.5 | – | 30 | 47.7 | 63.9 | – | 32.8 | – | – | – | – | – | – | – | – | – | – |
| CC(C)(C)OC(=O)NC1CCCC1=O (stereo not given) | > 100 | > 100 | > 100 | > 100 | > 100 | > 100 | > 100 | > 100 | > 100 | > 100 | – | – | – | – | – | – | – | – | – | – |
| Cc1c2ccncc2c(C)c2c1[nH]c1ccc(O)c(OCC(F)(F)F)c12 | 5.78 | 27.3 | 19.4 | 10.7 | 3.27 | 24.1 | > 7.5 | 26 | – | – | – | – | – | – | – | – | – | – | – | – |
| CC(C)(C)NCC(COc1ccc([N+](=O)[O-])cc1)OP(c1ccccc1)c1ccccc1 (stereo not given) | > 100 | > 100 | > 100 | > 100 | 26.7 | > 100 | > 100 | > 100 | > 100 | > 100 | – | – | – | – | – | – | – | – | – | – |
| N#C/C(=C1\SC(N=Nc2ccc(Cl)cc2)C(=O)N1c1ccccc1)c1nc2ccccc2[nH]1 (stereo not given) | 26.8 | > 100 | 65.8 | 44.8 | 57.4 | > 100 | > 100 | > 100 | 67.9 | > 100 | – | – | – | – | – | – | – | – | – | – |
| CC(=O)[CH-]C(=O)c1ccccc1.CC(=O)[CH-]C(=O)c1ccccc1.CC1(C)OCC(C2OC3OC(C)(C)OC3C2[O-])O1.CC[O-].[Ti+4] (stereo not given) | 36 | 53.5 | 30 | 28.3 | 29.8 | 29 | 29.3 | 26.9 | 14.9 | 35.8 | 17.3 | 18.4 | 21 | 15.8 | 13.1 | 14.7 | 13.1 | 13.7 | 11.5 | 3.36 |
| COc1ccc(-c2c(C3=NCCCN3)nnn2-c2ccc([N+](=O)[O-])cc2)cc1 | > 100 | > 100 | > 100 | > 100 | > 100 | > 100 | > 100 | > 100 | > 100 | > 100 | – | – | – | – | – | – | – | – | – | – |
| N.N.N.N.N.O=S(=O)([O-])S(=O)(=O)[O-].[Co+3] | > 100 | > 100 | > 100 | > 100 | > 100 | > 100 | > 100 | > 100 | – | > 100 | > 100 | > 100 | > 100 | > 100 | > 100 | > 100 | > 100 | > 100 | > 100 | – |
| Nc1ccccc1C(=O)C(Br)C(Br)c1ccc2c(c1)OCO2 (stereo not given) | > 100 | 31 | 47.4 | 49.6 | 27.8 | 91.5 | 34.4 | 91.5 | 49.9 | 51 | – | – | – | – | – | – | – | – | – | – |
| CC(C)[O-].CC(C)[O-].O=c1cccccc1[O-].O=c1cccccc1[O-].[Ti+4] | 69.9 | > 100 | > 100 | > 100 | > 100 | > 100 | – | > 100 | – | > 100 | – | – | 46.1 | – | 28.9 | – | – | – | – | – |
| O=C(CC1(O)C(=O)Nc2c(Cl)ccc(Cl)c21)c1ccc(Cl)cc1Cl (stereo not given) | 27.8 | > 100 | 43.3 | 21.9 | 28.3 | 62.9 | 33.3 | 41.6 | 42.3 | 30.5 | – | – | – | – | – | – | – | – | – | – |
| COc1cc(C2c3cc4c(cc3[C@@H](Nc3ccc5c(c3)OCCO5)C3COC(=O)[C@H]23)OCO4)cc(OC)c1O (stereo not given in full) | 3.11 | 9.05 | 2.79 | 8.26 | 22.4 | 23.1 | 5.96 | 25.6 | 4.64 | – | – | – | – | – | – | – | – | – | – | – |
